Data: paper PMC10307035, “Antiviral activity of singlet oxygen-photogenerating perylene compounds against SARS-CoV-2: Interaction with the viral envelope and photodynamic virion inactivation” (Virus Research, 2023)

Key:
[1] = ROS generation rate / quantum yield, DPBF bleaching in methanol; assay type: physicochemical; settings: for φROS (ROS generation quantum yield): in methanol, DPBF trap, 450–470 nm illumination, riboflavin as reference
Source text: The ROS generation rate was estimated using the spectrophotometric method, based on the absorption changes of 1,3-diphenylisobenzofuran (DPBF, Sigma Aldrich, Germany) in methanol solution. Irreversible oxidation of DPBF by singlet oxygen results in peroxide formation, and DPBF bleaching. When light of 400–450 nm was used as actinic, DPBF bleaching occurred without any photosensitizer (PS) in solution. Therefore, to study photosensitized ROS generation, we used a white MCWHLP1 LED (Thorlabs, USA) with filters to limit the radiation to the 450–470 nm range (5.5 mW/cm^2).
Spectrophotometric measurements were performed in a Qpod 2e (Quantum Northwest, USA) thermostated cuvette holder at 25 °C with magnetic stirring (500 rpm). Absorption spectra were recorded using a MayaPro spectrophotometer (Ocean Optics, USA) and a stabilized white light source with a SLS201L tungsten lamp (Thorlabs, USA). Illumination was uniform over the entire volume of the cuvette, to prevent artifacts associated with the diffusion of non-reacted components into the illuminated volume of the cuvette. In this case, the rate of irreversible bleaching of DPBF (412 nm) was the same under both continuous and pulsed irradiation with equal total irradiation time. Illumination was performed in a pulsed mode (Fig. S5A), with 1 s of illumination followed by 5 s of dark adaptation, during which the absorption spectrum of the PS-DPBF solution was recorded. Data processing was performed as previously described ([Gvozdev et al., 2020]).

[2] = system: Vero cells; experiment: Light-induced cytotoxicity in Vero cells; assay type: cell-based, African Green Monkey; settings: 0–10 µM, 465–480 nm 10 min, then 24 h in the dark
Description: To determine the light-induced cytotoxicity of the tested compounds, Vero cells were cultured for 24 h in 96-well plates to form a confluent monolayer, and then were treated with the tested compounds at concentrations of 0 to 10 µM. Then, the compound-treated cells were irradiated for 10 min at RT with LEDs (465–480 nm) having an approximate power density of 30 mW/cm^2 (device description in Fig. S7). As a negative control, compound-treated cells were incubated for 10 min in the dark at RT. Subsequently, both irradiated and non-irradiated cell monolayers were incubated in the dark at 37 °C for 24 h. Then, the cell culture medium was aspirated and the potential cytotoxicity of the tested perylene derivatives was determined based on cell viability using Cell Counting Kit-8 (Dojindo Molecular Technologies, Munich, Germany) according to the manufacturer's instructions.

[3] = system: CRFK cells; experiment: Cytotoxicity assay (Cell Counting Kit-8) in CRFK cells; assay type: cell-based, Felis catus; settings: up to 10 µM
Description: (§1) To determine the overall cytotoxicity of the tested compounds, Vero cells were cultured for 24 h in 96-well plates to form a confluent monolayer, and then were treated with the tested compounds at concentrations of 2 and 10 µM. After 48 h of cultivation in the dark at 37 °C under 5% CO2, the cell culture medium was aspirated. The potential cytotoxicity of the tested perylene derivatives was determined based on cell viability using Cell Counting Kit-8 (Dojindo Molecular Technologies, Munich, Germany) according to the manufacturer's instructions. The cell viabilities of compound-treated Vero cells were compared with those of control DMSO-treated cells. We also used the above-described protocol to assess the cytotoxicity of the selected perylene antivirals, at concentrations ranging from 0 to 10 µM, in CaCo-2 and CRFK cells.

[4] = system: SARS-CoV-2 (Wuhan strain); experiment: Viral titer inhibition assay, SARS-CoV-2 in CaCo-2 cells; assay type: cell-based; settings: 0–10 µM
[5] = system: CaCo-2 cells; experiment: Cytotoxicity assay (Cell Counting Kit-8) in CaCo-2 cells; assay type: cell-based, human; settings: up to 10 µM
Description: as §1

[6] = system: SARS-CoV-2; experiment: Photodynamic inactivation of SARS-CoV-2 virions; assay type: cell-based; settings: for antiviral activity after blue light irradiation of virus-compound mixture: 465–480 nm, 30 mW/cm^2, 10 min, then 60 min at 37 °C in the dark, plaque assay
Description: Virus in DMEM (titer of 10^5 PFU/mL) was mixed with the compounds (0–10 µM) in a microtiter plate, in triplicate, and irradiated for 10 min at RT with LEDs (465–480 nm) having an approximate power density of 30 mW/cm^2 (device description in supplement). As a negative control, virus was incubated for 10 min in the dark at RT. Subsequently, both irradiated and non-irradiated virus samples were incubated in the dark at 37 °C for 60 min. All manipulation with the samples before and after this incubation, i.e., mixing the compound with the virus, pipetting into a microtiter plate, etc., were performed in daylight. Viral titers were determined by plaque assays (performed also in daylight) and expressed as PFU/mL, as previously described ([Stefanik et al., 2021]). To eliminate the influence of daylight on compound activity, the whole experiment, including all manipulation with samples, was performed in a dark room under red light. The virus sample was mixed with the indicated compounds at concentrations from 0 to 10 μM or 100 μM, incubated for 60 min at 37 °C and virus viability was evaluated using a plaque assay (Fig. 9A).

[7] = ROS generation measurement with DMA trap in DMSO; assay type: physicochemical; settings: for ROS generation, DMA trap, under blue light: 465–480 nm, 30 mW/cm^2, 10 min
Description: ROS generation was also estimated using 9,10-dimethylanthracene (DMA), another specific fluorescent singlet oxygen trap, which forms nonfluorescent 9,10-dimethylanthracene endoperoxide after ROS-mediated DMA oxidation. Compounds (0, 0.1, 1, and 10 µM) in DMSO were mixed with DMA (0.5 µM), and these solutions were irradiated for 10 min at room temperature (RT) with light-emitting diodes (LED, 465–480 nm) having approximate power density of 30 mW/cm^2 (device description in Fig. S7). DMA fluorescence intensity was measured at ex/em wavelengths of 370/432 nm in the presence or absence of α-tocopherol (3 µg/mL) as an antioxidant. Singlet oxygen generation was accompanied by a decreased fluorescence signal of the DMA probe ([Zeng et al., 2020]).

[8] = system: feline infectious peritonitis virus (FIPV); assay type: cell-based, feline coronavirus (FCoV); settings: 0–10 µM
[9] = system: Vero cells; experiment: Cytotoxicity assay (Cell Counting Kit-8) in Vero cells; assay type: cell-based, African Green Monkey; settings: 10 µM, 48 h
Description: as §1

[10] = Spectrofluorometric analysis of interaction with liposomes; assay type: physicochemical
[11] = system: CaCo-2 cells; experiment: Cellular stress marker expression by RT-qPCR in CaCo-2 cells; assay type: cell-based, human
Description: RT-qPCR was performed to evaluate changes in the gene expression of cellular stress markers. […] Previous publications report the primer sequences and numbers of the Universal Probe Library (UPL; Roche Life Sciences, Germany) used for detection of ATF3, CDKN1A (p21), CYP1A1, DDIT3, HMOX1, HSPA1B (HSP70), and HSPA5 mRNAs ([Procházková et al., 2018]; [Šimečková et al., 2020]). […] TaqMan™ Gene Expression Assays (Thermo Fisher Scientific, Waltham, MA, USA) were used to determine the levels of FGF21 (Hs00173927_m1), GADD45A (Hs00169255_m1), GDF15 (Hs00171132_m1), and SRXN1 (Hs00607800_m1). The amplification was run in a 10-µL reaction mixture containing 1 µL of sample, using Kapa Probe Fast One-Step (Kapa Biosystems Pty, Cape Town, South Africa) on a LightCycler® 480 System (Roche Diagnostics, Czech Republic) using the previously published sequence ([Procházková et al., 2018]). Reference gene qPCR assays (Generi Biotech, Hradec Králové, Czech Republic) were used for the following housekeeping genes: human β2-Microglobulin (B2M; #3030), hydroxymethylbilane synthase (HMBS; #3032), and RNA polymerase II subunit A (POLR2A; #3035). We used an average of three reference gene Cp values to calculate the change in gene expression using the comparative threshold cycle method ([Schmittgen and Livak, 2008]).

SMILES | φROS (ROS generation quantum yield) [1] [%] | cell viability (in words) [9] | also measured
O=c1[nH]c(=O)n([C@@H]2O[C@H](CO)[C@@H](O)[C@@H]2O)cc1C#Cc1ccc2c3cccc4cccc(c5cccc1c52)c43 [Compound 1, 5-(perylen-3-yl)ethynyl-arabino-uridine] | 22.8 ± 0.4 |  | 
O=c1[nH]c(=O)n([C@H]2C[C@H](O)[C@@H](CO)O2)cc1C#Cc1ccc2c3cccc4cccc(c5cccc1c52)c43 [Compound 2, 5-(perylen-3-yl)ethynyl-2′-deoxy-uridine] | 20.9 ± 0.2 |  | effect of blue light irradiation on cytotoxicity [2]: dramatically increased; tolerability by CRFK cells [3]: well-tolerated; anti-SARS-CoV-2 activity in CaCo-2 cells [4]: sub-micromolar; tolerability by CaCo-2 cells [5]: well-tolerated; antiviral effect under red light only ([6]; 100 µM, dark room, red light, 60 min at 37 °C): no antiviral effect; antiviral activity after blue light irradiation of virus-compound mixture [6]: low-nanomolar; antiviral activity under red light only ([6]; up to 10 µM, dark room, red light, 60 min at 37 °C): completely disappeared; ROS generation, DMA trap, under blue light [7]: significant bleaching; ROS generation, DMA trap, in the dark or with α-tocopherol ([7]; 10 min, dark or α-tocopherol (3 µg/mL)): no/limited bleaching; replication of FIPV in CRFK cells [8]: potently suppressed the replication
O=c1[nH]cc(C#Cc2ccc3c4cccc5cccc(c6cccc2c63)c54)c(=O)[nH]1 [Compound 3] | 12.7 ± 1.2 |  | 
Cn1cc(C#Cc2ccc3c4cccc5cccc(c6cccc2c63)c54)c(=O)n(C)c1=O [Compound 4] | 22.8 ± 0.4 | moderately decreased cell viability | 
CC(C)(C)C(=O)OCn1c(=O)c(C#Cc2ccc3c4cccc5cccc(c6cccc2c63)c54)cn(CC(=O)O)c1=O [Compound 5] | 20.5 ± 0.2 | moderately decreased cell viability | 
CC(C)(C)C(=O)OCn1c(=O)c(C#Cc2ccc3c4cccc5cccc(c6cccc2c63)c54)cn(CC(=O)NCCCCO)c1=O [Compound 6] | 18.2 ± 0.2 |  | 
CC(C)(C)C(=O)OCn1c(=O)c(C#Cc2ccc3c4cccc5cccc(c6cccc2c63)c54)cn(CC(=O)NC[C@@H](O)C(C)(C)CO)c1=O [Compound 7] | 17.3 ± 0.2 |  | 
CCCCNC(=O)Cn1cc(C#Cc2ccc3c4cccc5cccc(c6cccc2c63)c54)c(=O)n(COC(=O)C(C)(C)C)c1=O [Compound 8] | 17.6 ± 0.4 | moderately decreased cell viability | effect of blue light irradiation on cytotoxicity [2]: no effect; antiviral activity after blue light irradiation of virus-compound mixture [6]: significant increase of antiviral activity
CC(C)(C)C(=O)OCn1c(=O)c(C#Cc2ccc3c4cccc5cccc(c6cccc2c63)c54)cn(CC(=O)NCCO)c1=O [Compound 9] | 17.3 ± 0.2 |  | 
CC(C)(C)C(=O)OCn1c(=O)c(C#Cc2ccc3c4cccc5cccc(c6cccc2c63)c54)cn(CC(=O)NCCCO)c1=O [Compound 10] | 16.5 ± 0.2 |  | 
CC(C)(C)C(=O)OCn1c(=O)c(C#Cc2ccc3c4cccc5cccc(c6cccc2c63)c54)cn(CC(=O)NCCCCCO)c1=O [Compound 11] | 17.2 ± 0.4 |  | 
CC(C)(C)C(=O)OCn1c(=O)c(C#Cc2ccc3c4cccc5cccc(c6cccc2c63)c54)cn(CC(=O)NCCCCCCO)c1=O [Compound 12] | 18.1 ± 0.4 | moderately decreased cell viability | 
CC(=O)Nc1ccc(C#Cc2ccc3c4cccc5cccc(c6cccc2c63)c54)cc1 [Compound 15] | 23.1 ± 0.4 |  | 
O=C(c1ccc(-c2ccc3c4cccc5cccc(c6cccc2c63)c54)s1)N(CCO)CCO [Compound 18] | 60.0 ± 2.4 |  | 
CCCCNC(=O)c1ccc(-c2ccc3c4cccc5cccc(c6cccc2c63)c54)s1 [Compound 19] | 59.1 ± 1.2 | moderately decreased cell viability | 
O=C(O)c1ccc2c3cccc4cccc(c5cccc1c52)c43 [Compound 20] |  | moderately decreased cell viability | photodynamic activity (DPBF trap, in words) ([1]; methanol, 450–470 nm): minimal; ROS generation, DMA trap, under blue light [7]: minimal photodynamic activities; solubility in water (in words) [10]: good solubility in water; penetration into liposomal membranes (in words) ([10]; 10 µM in PBS, EPC/Chol 70/30 mol% liposomes): no fluorescence enhancement
Clc1cc2c(cc1Cl)Oc1cc(Cl)c(Cl)cc1O2 [TCDD, reference compound] |  |  | increase of CYP1A1 mRNA level ([11]; CaCo-2 cells, 10 nM): up to 50 fold
C/C=C(/C)C(=O)O[C@H]1C(C)=C2[C@H]([C@@H]1OC(=O)CCCCCCC)[C@@](C)(OC(C)=O)C[C@H](OC(=O)CCC)[C@@]1(O)[C@H]2OC(=O)[C@@]1(C)O [thapsigargin, reference compound] |  |  | expression of HSPA5, DDIT3, HSPA1B (HSP70), CDKN1A (p21), GADD45A ([11]; CaCo-2 cells, 5, 24 and 48 h): increased
